Measured values: article PMC6002460, “Pharmacological evaluation of new constituents of “Spice”: synthetic cannabinoids based on indole, indazole, benzimidazole and carbazole scaffolds” (Forensic Toxicology, 2018)
Like-named read-outs stand apart in the source and are kept apart here.

Columns and labels:
CB2 receptor [1] = conditions: membrane potential assay, cited from earlier work
human CB1 receptor [2] = molecular target: T1, human CB1 receptor (Homo sapiens, UniProt P21554); test: biochemical; type: binding; conditions: [3H]CP55,940 0.1 nM, CHO cell membranes; read-out: Ki ± SEM Human CB1
T1 construct: expressed in transfected cells; host or cells: CHO cells (membrane preparations)

CB1 receptor [3] = conditions: membrane potential assay, cited from earlier work
human GPR55 = molecular target: T2, human GPR55 (Homo sapiens, UniProt Q9Y2T6); test: β-Arrestin PathHunter assay, recombinant CHO cells expressing GPR55; type: cell-based
T2 construct: host or cells: CHO cells
Method: (§1) β-Arrestin assays were performed in recombinant CHO cells expressing either the human GPR18 or the human GPR55 as described before using the β-galactosidase enzyme fragment complementation technology (β-arrestin PathHunter™ assay; DiscoverX, Fremont, CA, USA).
(§2) The orphan receptors GPR18 and GPR55 can interact with certain natural and synthetic cannabinoids. […] Therefore, we investigated the new series of indole, indazole, benzimidazole and carbazole-derived structures in β-arrestin assays at GPR18 and GPR55 (Table 2). […] For the lipophilic substitutions, the following rank order of potency was observed: ethyl > methyl > chloro > fluoro. Therefore, it can be concluded that a lipophilic substitution in position 4 of the naphthyl residue was a requirement for GPR55 inhibition.

human CB2 receptor [4] = molecular target: T3, human CB2 receptor (Homo sapiens, UniProt P34972); test: biochemical; type: binding; conditions: [3H]CP55,940 0.1 nM, CHO cell membranes; read-out: Ki ± SEM Human CB2
T3 construct: expressed in transfected cells; host or cells: CHO cells (membrane preparations)

human GPR18 = molecular target: T4, human GPR18 (Homo sapiens, UniProt Q14330); test: β-Arrestin PathHunter assay, recombinant CHO cells expressing GPR18; type: cell-based; conditions: for Human GPR18 % activation / Human GPR18 % inhibition: value in parentheses
T4 construct: host or cells: CHO cells
T4 sequence (Q14330 1-331): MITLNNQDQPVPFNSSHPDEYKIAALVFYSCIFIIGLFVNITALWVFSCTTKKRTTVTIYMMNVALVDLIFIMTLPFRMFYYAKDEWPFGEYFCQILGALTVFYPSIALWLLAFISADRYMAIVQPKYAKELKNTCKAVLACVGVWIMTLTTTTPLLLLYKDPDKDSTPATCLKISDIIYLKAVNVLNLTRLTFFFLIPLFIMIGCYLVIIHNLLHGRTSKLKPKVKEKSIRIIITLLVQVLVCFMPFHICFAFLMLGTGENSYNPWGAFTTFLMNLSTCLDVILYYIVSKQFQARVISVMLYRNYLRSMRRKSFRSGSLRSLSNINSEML
Method: as §1, §2

human CB2 receptor [5] = molecular target: T3, human CB2 receptor; test: cAMP accumulation assay, CHO cells stably expressing CB2; type: cell-based
Method: (§3) cAMP accumulation assays were performed also as previously described. Briefly, CHO cells stably expressing the respective human CB receptor subtype CB1 or CB2 were seeded overnight. […] After incubation for 15 min the buffer was removed, and the cells were lyzed. The amount of cAMP was determined in a radioligand binding assay by incubating 50 µL of the cell lysate with 3 nM [^3H]cAMP in the presence of protein preparations from bovine adrenal glands (cAMP binding protein). Bound and unbound radioligand were separated by rapid filtration through GF/B filters, and radioactivity was determined by liquid scintillation counting. To test for antagonistic activity, test compounds were added to Hank’s buffered salt solution (HBSS) containing 10% dimethyl sulfoxide (DMSO), 10 min after the application of Ro-20-1724, and the mixture was incubated for 20 min at 37 °C.
(§4) As a next step, we investigated the compounds in cAMP accumulation assays, to obtain information on their functionality (Fig. 3). CB receptors are Gi protein-coupled and thus reduce the levels of cAMP in the cells upon activation.

human CB1 receptor [6] = molecular target: T1, human CB1 receptor; test: cAMP accumulation assay, CHO cells stably expressing CB1; type: cell-based
Method: as §3, §4

CB2 receptor [7] = conditions: cited from earlier work
CB1 receptor [8] = conditions: cited from earlier work
CB2 receptor [9] = molecular target: CB2 receptor; design: method as in Wiley et al. [41]; conditions: versus 0.62 nM [3H]CP55,940; ref Wiley et al. [41]; cited from earlier work
CB1 receptor [10] = molecular target: CB1 receptor; design: method as in Wiley et al. [41]; conditions: versus 0.62 nM [3H]CP55,940; ref Wiley et al. [41]; cited from earlier work
CB1 receptor [11] = molecular target: CB1 receptor; design: method as in Buchler et al. [37]; conditions: versus 0.5 nM [3H]CP55,940; ref Buchler et al. [37]; cited from earlier work
[12] = agonist mode, value in parentheses
[13] = compound at 10 µM, normalized to CP55,940 (1 µM)

T3 sequence (P34972 whole entry): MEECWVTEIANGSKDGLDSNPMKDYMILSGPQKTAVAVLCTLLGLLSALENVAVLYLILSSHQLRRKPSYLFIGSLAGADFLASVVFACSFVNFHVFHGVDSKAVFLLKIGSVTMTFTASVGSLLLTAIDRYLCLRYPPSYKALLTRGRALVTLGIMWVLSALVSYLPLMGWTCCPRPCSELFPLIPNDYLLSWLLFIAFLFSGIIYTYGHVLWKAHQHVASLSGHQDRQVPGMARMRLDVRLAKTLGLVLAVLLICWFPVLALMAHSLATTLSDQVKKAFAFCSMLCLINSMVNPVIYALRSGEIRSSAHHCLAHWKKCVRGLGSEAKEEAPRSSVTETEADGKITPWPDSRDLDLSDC
T1 sequence (P21554 whole entry): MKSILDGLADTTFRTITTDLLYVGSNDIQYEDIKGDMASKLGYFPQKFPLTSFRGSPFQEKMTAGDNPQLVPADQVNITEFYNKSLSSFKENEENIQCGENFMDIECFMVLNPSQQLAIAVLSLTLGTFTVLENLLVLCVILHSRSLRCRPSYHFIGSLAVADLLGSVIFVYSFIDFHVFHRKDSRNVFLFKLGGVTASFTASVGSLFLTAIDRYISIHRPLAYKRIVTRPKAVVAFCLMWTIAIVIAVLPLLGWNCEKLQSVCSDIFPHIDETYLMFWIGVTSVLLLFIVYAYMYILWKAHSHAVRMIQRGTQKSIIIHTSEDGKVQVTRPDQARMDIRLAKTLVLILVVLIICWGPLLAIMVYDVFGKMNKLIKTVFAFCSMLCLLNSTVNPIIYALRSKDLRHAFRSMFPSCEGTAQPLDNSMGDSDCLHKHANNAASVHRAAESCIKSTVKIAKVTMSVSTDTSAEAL
T2 sequence (Q9Y2T6 whole entry): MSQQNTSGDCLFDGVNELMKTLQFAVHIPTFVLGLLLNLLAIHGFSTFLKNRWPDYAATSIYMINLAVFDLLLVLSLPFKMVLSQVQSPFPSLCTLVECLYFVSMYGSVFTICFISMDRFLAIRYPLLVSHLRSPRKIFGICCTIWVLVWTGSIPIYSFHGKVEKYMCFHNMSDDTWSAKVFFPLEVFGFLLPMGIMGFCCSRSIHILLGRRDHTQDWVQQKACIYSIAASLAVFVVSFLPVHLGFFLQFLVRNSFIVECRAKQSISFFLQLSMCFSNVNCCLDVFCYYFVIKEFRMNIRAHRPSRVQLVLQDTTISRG

In the case of CC(C)(C)[C@H](NC(=O)c1cn(CCCCCF)c2ccccc12)C(N)=O [compound 21, 5F-ADBICA], the EC50 (CB2 receptor [1]; ref Banister et al. [42]) is listed as 1.2 nM, the Ki (human CB1 receptor [2]) is listed as 2.72 ± 0.35 nM and the EC50 (CB1 receptor [3]; ref Banister et al. [42]) is listed as 0.77 nM. For the same compound, the EC50 (human GPR55) was > 10000 nM, the IC50 (human GPR55) was > 10000 nM and the “Human GPR55 % activation” value (human GPR55; [12]) was 8%. For the same compound, the Ki (human CB2 receptor [4]) was 1.83 ± 0.11 nM, the EC50 (human GPR18) was > 10000 nM and the IC50 (human GPR18) was > 10000 nM. The “Human GPR18 % activation” value (human GPR18; agonist mode) was 27%.

For COC(=O)[C@@H](NC(=O)c1nn(CCCCCF)c2ccccc12)C(C)C [compound 8, 5F-AMB], the EC50 (CB2 receptor [1]; ref Banister et al. [38]) is listed as 10 nM, the Ki (human CB1 receptor [2]) is listed as 1.13 ± 0.48 nM and the EC50 (CB1 receptor [3]; ref Banister et al. [38]) is listed as 1.9 nM. The EC50 (human GPR55) was > 10000 nM, the IC50 (human GPR55) was > 10000 nM and the “Human GPR55 % activation” value (human GPR55; [12]) was 14%. For the same compound, the Ki (human CB2 receptor [4]) was 1.38 ± 0.22 nM, the EC50 (human GPR18) was > 10000 nM and the IC50 (human GPR18) was > 10000 nM. For the same compound, the “Human GPR18 % activation” value (human GPR18; agonist mode) was 1%.

For O=C(c1ccc2c(c1)c1ccccc1n2CCCCCF)c1cccc2ccccc12 [compound 40, EG-2201], the Emax (human CB2 receptor [5]; CHO, read-out: efficacy at CB2 compared to maximum response of CP55,940, cAMP accumulation) was 77%, the “functional behaviour at CB2 receptor (in words)” value (human CB2 receptor [5]; cAMP accumulation) was “agonistic behavior” and the EC50 (human CB2 receptor [5]; forskolin 10 µM, read-out: EC50 CB2 receptor activation, cAMP accumulation) was 5.65 nM. For the same compound, the Ki (human CB1 receptor [2]) was 22.4 ± 12.8 nM, the Emax (human CB1 receptor [6]; CHO, read-out: efficacy at CB1 compared to maximum response of CP55,940, cAMP accumulation) was 94% and the “functional behaviour at CB1 receptor (in words)” value (human CB1 receptor [6]; cAMP accumulation) was “agonistic behavior”. For the same compound, the EC50 (human CB1 receptor [6]; forskolin 10 µM, read-out: EC50 CB1 receptor activation, cAMP accumulation) was 15.6 nM, the EC50 (human GPR55; agonist mode, read-out: Human GPR55 EC50) was > 10000 nM and the “Human GPR55 % inhibition” value (human GPR55; antagonist mode versus LPI 1 µM, value in parentheses) was 3%. For the same compound, the IC50 (human GPR55; antagonist mode versus lysophosphatidylinositol (LPI, 1 µM), read-out: Human GPR55 IC50) was > 10000 nM, the Ki (human CB2 receptor [4]) was 4.36 ± 2.91 nM and the “Human GPR18 % activation” value (human GPR18; agonist mode) was 3%. The EC50 (human GPR18; agonist mode, read-out: Human GPR18 EC50) was > 10000 nM, the “Human GPR18 % inhibition” value (human GPR18; antagonist mode) was 7% and the IC50 (human GPR18; antagonist mode, read-out: Human GPR18 IC50) was > 10000 nM.

In the case of Cc1ccc(Cn2nc(C(=O)N[C@@H]3C(C)(C)[C@@H]4CC[C@@]3(C)C4)cc2-c2ccc(Cl)c(C)c2)cc1 [compound 44, SR-144,528], the “function at CB2 (in words)” value (CB2 receptor [7]) is given as “antagonist” and the Ki (CB1 receptor [8]) is given as 437 ± 33 nM.

In the case of COc1ccc(C(=O)c2c(C)n(CCN3CCOCC3)c3cc(I)ccc23)cc1 [compound 43, AM-630], the Ki (CB2 receptor [7]) is listed as 31.2 ± 12.4 nM, the “function at CB2 (in words)” value (CB2 receptor [7]) is listed as “antagonist” and the “function at CB1 (in words)” value (CB1 receptor [8]) is listed as “partial agonist”.

For CC(C)[C@H](NC(=O)c1nn(CC2CCCCC2)c2ccccc12)C(N)=O [compound 20], the Ki (CB2 receptor [9]) is listed as 0.45 nM, the Ki (human CB1 receptor [2]) is listed as 1.72 ± 0.14 nM and the Ki (CB1 receptor [10]) is listed as 0.78 nM. The EC50 (human GPR55) was > 10000 nM, the IC50 (human GPR55) was > 10000 nM and the “Human GPR55 % activation” value (human GPR55; [12]) was 8%. The Ki (human CB2 receptor [4]) was 1.91 ± 0.2 nM, the EC50 (human GPR18) was > 10000 nM and the IC50 (human GPR18) was > 10000 nM. The “Human GPR18 % activation” value (human GPR18; agonist mode) was 13% and the “Human GPR18 % inhibition” value (human GPR18; antagonist mode) was 11%.

For NC(=O)[C@H](Cc1ccccc1)NC(=O)c1nn(Cc2ccc(F)cc2)c2ccccc12 [compound 29, APP-FUBINACA], the Ki (CB1 receptor [11]) is given as 47.6 nM, the “CB2 receptor activation in cAMP accumulation assay (in words)” value (human CB2 receptor [5]; [13]) is given as “full agonists” and the Ki (human CB1 receptor [2]) is given as 56.3 ± 19.8 nM. The “CB1 receptor activation in cAMP accumulation assay (in words)” value (human CB1 receptor [6]; [13]) was “partial activation”, the EC50 (human GPR55) was > 10000 nM and the IC50 (human GPR55) was > 10000 nM. The “Human GPR55 % activation” value (human GPR55; [12]) was 26%, the Ki (human CB2 receptor [4]) was 58.1 ± 17.3 nM and the EC50 (human GPR18) was > 10000 nM. The IC50 (human GPR18) was > 10000 nM, the “Human GPR18 % activation” value (human GPR18; agonist mode) was 4% and the “Human GPR18 % inhibition” value (human GPR18; antagonist mode) was 21%.

For CC(C)[C@H](NC(=O)c1nn(Cc2cccc(F)c2)c2ccccc12)C(N)=O [compound 18, AB-FUBINACA (3-F-benzyl-isomer)], the Ki (CB1 receptor [11]) is listed as 51.1 nM, the Ki (human CB1 receptor [2]) is listed as 12.6 ± 0.7 nM and the EC50 (human GPR55) is listed as > 10000 nM. The IC50 (human GPR55) was > 10000 nM, the “Human GPR55 % activation” value (human GPR55; [12]) was 11% and the Ki (human CB2 receptor [4]) was 52.2 ± 10.2 nM. For the same compound, the EC50 (human GPR18) was > 10000 nM, the IC50 (human GPR18) was > 10000 nM and the “Human GPR18 % activation” value (human GPR18; agonist mode) was > 10 (10%).
